# How the values were obtained:
# [1] = test system: A. glycines; assay: flavonoid in vitro feeding bioassay on artificial diet, soybean aphid; assay type: in vivo, Aphis glycines; details: artificial diet with 0.01% apigenin; compared with control diet (DMSO); adults
# Description: (§1) A pea aphid colony (A. pisum strain CWR09/18, kindly supplied by Angela Douglas, Cornell University) was reared on faba bean plants (Viciafaba, var. Windsor; Johnny's Selected Seeds, Winslow, Me., USA) which were grown in Metromix 200 (Scotts, Marysville, Ohio, USA) in a growth chamber at the same condition with soybeans in insect rearing room at 25° C. with a 12:12 h day:night cycle (64). A soybean aphid colony (A. glycines), kindly supplied by Gustavo Macintosh at Iowa State University, was reared on soybean plants (G. max var. William 82) that were grown in same soil and conditions as described for the pea aphid colony.
# (§2) For flavonoid in vitro feeding bioassays, the effects of three isoflavones, daidzein, formononetin and prunetin, as well as two flavones, apigenin and kaempferol on A. glycines and A. pisum adults were tested by rearing 30 insects on an artificial diet (65) in membrane feeding tubes. Adults were fed an artificial diet containing one of the following treatments, 0.01% apigenin, 0.2% daidzein, 0.01% prunetin, 0.04% formononetin or 0.02% kaempferol for 6 days in an insect rearing room (25° C. with a 12:12 h day:night cycle). […] The compound concentrations for diet experiments were based on their measured concentrations in soybean leaves. After 6 days of feeding, the number of surviving aphids was counted.
# [2] = test system: A. pisum; assay: flavonoid in vitro feeding bioassay on artificial diet, pea aphid; assay type: in vivo, Acyrthosiphon pisum; details: artificial diet with 0.2% daidzein, 0.01% prunetin or 0.04% formononetin; compared with control diet (DMSO) or flavones; adults
# Description: as §1, §2
# [3] = test system: Trichoplusia ni; details: constitutively produced in soybean PI 227697 leaves; cited from earlier work
# [4] = test system: Anticarsia gemmatalis; details: constitutively produced in soybean PI 227697 leaves; cited from earlier work
compound,measurement,setting,value
O=c1cc(-c2ccc(O)cc2)oc2cc(O)cc(O)c12 [apigenin],mortality of SBA,[1],increased
O=c1c(-c2ccc(O)cc2)coc2cc(O)ccc12 [daidzein],mortality of PA,[2],higher mortality
O=c1c(-c2ccc(O)cc2)coc2cc(O[C@@H]3O[C@H](CO)[C@@H](O)[C@H](O)[C@H]3O)cc(O)c12 [genistin],performance of Trichoplusia ni larvae,[3],negatively affect the performance
same,performance of Anticarsia gemmatalis larvae,[4],negatively affect the performance
COc1cc(O)c2c(=O)c(-c3ccc(O)cc3)coc2c1 [prunetin],mortality of PA,[2],higher mortality

# Reference: patent US20190390220A1, “Compositions and Methods of Increasing Aphid Resistance in Transgenic Plants” (Boyce Thompson Institute, priority 2018, published 2019)
